Values joined by “and” are separate entries in the source; they are usually repeats but may differ in a detail not shown here. Equal values may be shown once. “Also recorded” adds a separate entry of the source.
What was measured:
pan-cadherin = test: Western blot for pan-cadherin, SK-MEL-5; type: cell-based, human
Experimental: (§1) After treatment of M14 and SK-MEL-5 cells with different concentrations of Dxr2-017 or vehicle for 3 or 8 days, as denoted, cell images were captured at 20X in a transmitted light channel using the EVOS™ M5000 Imaging System (Invitrogen (Waltham, MA, USA)). Western blots were performed as previously described by us. Briefly, cells were collected and lysed using RIPA lysis buffer (25 mM Tris-HCl pH 7.6, 150 mM NaCl, 1% NP-40, 1% sodium deoxycholate, and 0.1% SDS; Thermo Scientific^TM (Waltham, MA, USA), #89900), supplemented with protease and phosphatase inhibitor cocktail (Thermo Scientific^TM, #78442) and 1 mM of PMSF. Resultant Western blots were probed using antibodies against cleaved caspase 3 (Cell Signaling Technology (Danvers, MA, USA), #9664), pan-cadherin (Cell Signaling Technology, #4068), and β-actin (Santa Cruz (Santa Cruz, CA, USA), #sc-47778).
These findings led us to compare cleaved caspase 3 between adherent cells and floating cells. Cleaved caspase 3 is an indicator of programmed cell death, and its triggering by loss of cell attachment is an established means of detecting anoikis. Adherent cells were prepared as above. […]

M14 cells = test: Adherent versus floating cell quantification from images, M14; type: cell-based, human; conditions: 10 µM, 3-day treatment, mean ± SEM (N = 4), controls 16.3 ± 2.8%
Experimental: as §1, with “Resultant Western blots were probed using antibodies against cleaved caspase 3 (Cell Signaling Technology (Danvers, MA, USA), #9664), pan-cadherin (Cell Signaling Technology, #4068), and β-actin (Santa Cruz (Santa Cruz, CA, USA), #sc-47778).” left out
(§2) Figure 8 Dxr2-017 inhibits melanoma cell growth through induction of anoikis. […] Data are expressed as the percent of untreated control and are the mean ± SEM of three separate experiments. […] M14 and SK-MEL-5 cells were treated for eight days with 20 nM and 50 nM of Dxr2-017, respectively, and the phase of the cell cycle was determined by flow cytometry. […] (D) Adherent and floating cells were quantified from captured images. Data are the mean ± SEM (N = 4), expressed as a percentage to total cells. * Denotes p-value ≤ 0.05 compared to respective floating or attached cells. […]
(§3) We then assessed whether Dxr2-017 induced apoptosis. […]

[1] = system: human cord blood CD34+ cells; test: Bone marrow stem cell (hematopoietic trilineage) colony formation assay; type: cell-based
Experimental: Human hematopoietic stem cell trilineage colony formation assays were performed as previously described by us. Briefly, human cord blood CD34+ cells (catalog #: 70008.5) were purchased from StemCell Technology Inc. and seeded at 1 × 10^4 cells per 35 mm dish. Cells were cultured in MethoCult™ Express (StemCell Technologies, Inc. (Vancouver, BC, Canada)) semisolid media, per the manufacturer’s instructions, in the presence of compound or vehicle (for controls). Compounds were added at final concentrations matching those used in the initial growth assay screens. At eight days, colonies (i.e., groups of ≥10 cells) were counted. At fourteen days, individual colonies of erythroid burst-forming units (BFU-E), colony-forming unit granulocyte–macrophage (CFU-GM), and colony-forming unit granulocyte, erythrocyte, monocyte, and megakaryocyte (CFU-GEMM) were identified based on the manufacturers’ morphologic characterization criteria. Assays were run in replicates of N = 2, and some were run in replicates of N = 4, as denoted. The mean number of colonies was then determined and expressed as the percentage of controls. The effect of each compound on inhibiting the growth of cancer cells relative to its toxic effects on normal bone marrow was evaluated. This was carried out by comparing colonies at 8 days for each cancer cell line to that of bone marrow. This information was used to calculate the efficacy ratio, as follows: efficacy ratio = (percent of remaining cancer cell colonies)/(percent of remaining bone marrow colonies). This was performed for all compounds at 40 µM and for selected compounds at 5.7 µM, as denoted. For compounds nominated for second-level screens, bone marrow colony formation assays were also repeated. Compounds were added at final concentrations matching those used in the initial screens.
In parallel with measuring growth inhibition of cancer cell growth, we measured the effect on human hematopoietic stem cells. Hematopoietic stem cells reside in the bone marrow and are the source of mature cells present in blood. Bone marrow is one of the most sensitive organs in the body to drug toxicity, and this is especially so for anticancer drugs, where bone marrow toxicity can approach 100% [78, 79, 80]. Bone marrow toxicity was measured by performing hematopoietic colony formation assays on human CD34+ stem cells. The stem cell nature of this assay permitted the assessment of trilineage colony formation: granulocytic (white blood cells), erythrocytic (red blood cells), and megakaryocytic (platelets), measured by the formation of CFU-GM, BFU-E, and CFU-GEMM colonies, respectively. Two measurements were taken. First, total colonies at eight days were measured, thereby matching the eight-day timeframe of cancer cell colony formation assays. Second, at fourteen days, individual colonies had differentiated, permitting quantification of each lineage.

cleaved caspase 3 = test: Western blot for cleaved caspase 3, M14; type: cell-based, human; conditions: up to 10 µM, three days
Experimental: as §1
We then assessed whether Dxr2-017 induced apoptosis. We treated M14 and SK-MEL-5 cells with Dxr2-017 for three days at concentrations of up 10 and 20 µM, respectively, and measured cleaved caspase 3 using Western blot. […] In this assay, cells were grown in six-well plates and washed prior to lysis, and thus only adherent cells remained. […] Adherent cells are spread out and fusiform shaped, while detached/floating cells are round, as previously reported by us. […]

SK-MEL-5 cells = test: Adherent versus floating cell quantification from images, SK-MEL-5; type: cell-based, human; conditions: 20 µM, 3-day treatment, mean ± SEM (N = 4), controls 19.5 ± 3.2%
Experimental: as §1, with “Resultant Western blots were probed using antibodies against cleaved caspase 3 (Cell Signaling Technology (Danvers, MA, USA), #9664), pan-cadherin (Cell Signaling Technology, #4068), and β-actin (Santa Cruz (Santa Cruz, CA, USA), #sc-47778).” left out
as §2, §3

c1ccc2sc(-c3ccc(CNc4ccc5nnnn5n4)o3)nc2c1 [Dxr2-017]
cadherin expression (pan-cadherin): decreased cadherin expression in a concentration-dependent manner
floating cell population, percentage to total cells (M14 cells): 79.9 ± 7.4%
inhibition of normal bone marrow eight-day colony formation ([1]; 40 µM, 8 days): 30.2 ± 0.7% and 30%
decrease of BFU-E compared to the control ([1]; 40 µM, 14 days): 97.1 ± 4.1%
decrease of CFU-GM compared to the control ([1]; 40 µM, 14 days): 49.8 ± 0.0%
increase of CFU-GEMM compared to the control ([1]; 40 µM, 14 days): 16.1 ± 12.0%
inhibition of normal bone marrow fourteen-day total colony formation ([1]; 40 µM, 14 days): 42.6 ± 5.8%
Mean Number of Colonies, % of Control, 14 days ([1]; normal bone marrow, compound at 40 µM, 14 days, N = 2): 57 % of Control
Mean Number of Colonies, % of Control, 8 days ([1]; normal bone marrow, compound at 40 µM, total colonies at 8 days, N = 2): 70 % of Control
cleaved caspase 3, adherent and floating cells combined (cleaved caspase 3): clear formation was observed
cleaved caspase 3, adherent cells only (cleaved caspase 3): did not see any induction of cleaved caspase 3; also recorded: no formation of cleaved caspase 3
floating cell population, percentage to total cells (SK-MEL-5 cells): 60.8 ± 10.4%
